# Measured values from patent publication US12358859B2, “Series of compounds for treatment of skin diseases and other conditions” (Unigen, Inc., priority 2018, dated 2025).
# Test system: reconstructed skin (keratinocytes and melanocytes)
# Test: Reconstructed human skin model (Melanoderm)
# Assay type: cell-based
# Settings: for significant whitening of melanocytes observed as early as: after the beginning of the experiment (data not shown); for alterations of cell morphology / whitening effects on skin melanocytes: applied topically for 15 days; for whitening effects on melanocytes: topical, photographs after 14 days; for toxicity on reconstructed skin: at 0.05%
# Protocol: The skin whitening effects of test compounds were studied using a reconstructed skin model, Melanoderm™ provided by MatTek Corp. (Ashland, Mass.) according to the manufacturer's specifications. Briefly, normal human epidermal keratinocytes and normal human melanocytes derived from dark skin donors were co-cultured on a surface of collagen-coated membrane to form multi-layered, highly differentiated skin tissue (MEL-300-B). The tissues were maintained in the CO2, incubator at 37° C. The apical surfaces of the reconstructed skin (9 mm in diameter) were exposed to air whereas the bottom surfaces remained in contact with 5 mL of maintenance medium, containing skin differentiating factors (EPI-100-NNM-113). Test compounds were formulated in 80% propylene glycol as follows: 10 mg of each test compound was dissolved in DMSO and diluted with 80% propylene glycol (1,2-propanediol, Sigma-Aldrich) to stock concentrations. The compounds were then sterilized by passing through 0.2 um filter and diluted in sterile water/propylene glycol to final test concentrations in 0.5% DMSO, 80% propylene glycol. In addition, the following controls were used: 80% propylene glycol with 0.5% DMSO, and 1% kojic acid in 80% propylene glycol.
# ‘Test compounds were applied to the apical surface of the tissues as follows: 25 μl of each test compound, 25 μl of 80% propylene glycol (vehicle control), and 25 μl of 1% kojic acid (positive control). The samples were reapplied every other day for 14 days. All the samples were tested in duplicate. At the end of the experiment microscopic images were taken.
# The potential skin-whitening properties of test compounds were explored in a reconstructed skin model. The model consists of normal, human-derived epidermal keratinocytes and melanocytes, which have been co-cultured to form a multilayered, highly differentiated human epidermis. In this study the melanocytes were obtained from a highly pigmented donor.
# Different concentrations of test compounds, 80% propylene glycol (the vehicle control), or 1% kojic acid (positive control) were repeatedly applied topically on the surface of the reconstructed skin for 15 days. […] Photographs of skin specimen taken after 15 days of the experiment show significant dose-dependent whitening effects on melanocytes, which appear on photographs as dark dendritic cells.
Structure (SMILES),significant whitening of melanocytes observed as early as [days],alterations of cell morphology,whitening effects on skin melanocytes,whitening effects on melanocytes,toxicity on reconstructed skin
"CC(C)=CCCC(C)=Cc1ccc(O)cc1 (mixture of isomers) [Compound 1, (E/Z)-4-(2,6-dimethylhepta-1,5-dienyl)phenol]",3,without causing any detectable alterations,significant whitening effects,significant whitening effects,–
"CC(C)=CCC/C(C)=C/c1cc(O)cc(O)c1 [Compound 4, (E/Z)-5-(2,6-dimethylhepta-1,5-dienyl)benzene-1,3-diol]",–,–,–,significant whitening effects,some toxicity
"CC(C)=CCCC(C)/C=C/c1ccc(O)cc1O (centres unmarked) [Compound 6, (E)-4-(3,7-dimethylocta-1,6-dienyl) benzene-1,3-diol]",3,without causing any detectable alterations,significant whitening effects,significant whitening effects,–
"CC(C)=CCCC(C)/C=C/c1cc(O)cc(O)c1 (centres unmarked) [Compound 7, (E)-5-(3,7-dimethylocta-1,6-dienyl) benzene-1,3-diol]",–,–,–,significant whitening effects,some toxicity
"CC(C)=CCCC(C)C/C=C\c1cc(O)cc(O)c1 (centres unmarked) [Compound 15, (Z)-5-(4,8-dimethylnona-1,7-dienyl) benzene-1,3-diol]",–,–,–,significant whitening effects,some toxicity
